{
  "source": "ChEMBL document CHEMBL3507680",
  "about": "“University of Dundee, Gates Library screen for HepG2 cell viability”",
  "data": [
    {"assay": "Human HepG2 cell viability assay in 384 well format", "format": "toxicity, cell-based", "set-up": "dose 125 nL, time 70.5 hour; concentration not given beside the values", "details": "HepG2 cells, read-out: Inhibition", "units": {"cytotoxicity at 70.5 h": "%"}, "values": [
      {"smiles": "CC(Nc1cnn(C)c(=O)c1Cl)c1ccc(F)c(F)c1", "note": "(stereo not drawn)", "cytotoxicity at 70.5 h": 39.8},
      {"smiles": "CC(C)CN1CC2(CCN(C(=O)c3nc4ncccn4n3)CC2)CC1=O", "cytotoxicity at 70.5 h": -17.1},
      {"smiles": "CCc1nc(C(=O)N(C)CC(=O)N(C)C)nn1-c1ccccc1Cl", "cytotoxicity at 70.5 h": 27.7},
      {"smiles": "CN1CCCC1c1ccc(N2CCOCC2)cn1", "note": "(stereo not drawn)", "cytotoxicity at 70.5 h": -16.8},
      {"smiles": "O=C(NC1CCCN(Cc2c(F)cccc2F)C1)c1cc[nH]n1", "note": "(stereo not drawn)", "cytotoxicity at 70.5 h": -18},
      {"smiles": "Cc1ccc(CN2CCc3onc(C(=O)N4CCCC4)c3C2)o1", "cytotoxicity at 70.5 h": -6.06},
      {"smiles": "Cc1nc(N2CCN(C)CC2)ncc1C(=O)N1CCC(O)(CO)CC1", "cytotoxicity at 70.5 h": -6.38},
      {"smiles": "COc1cccc(CNC(=O)c2nc3c(o2)CN(C(=O)N(C)C)C3)c1", "cytotoxicity at 70.5 h": -8.42},
      {"smiles": "CC(NC(=O)c1ccsc1)c1ccc2c(c1)NC(=O)CO2", "note": "(stereo not drawn)", "cytotoxicity at 70.5 h": -3.38},
      {"smiles": "COCCn1cc(NC(=O)N(CCC(N)=O)Cc2ccccc2)cn1", "cytotoxicity at 70.5 h": -14.4},
      {"smiles": "CC(NCc1ccccc1CN1CCCC1=O)c1ccc(C#N)cc1", "note": "(stereo not drawn)", "cytotoxicity at 70.5 h": 4.5},
      {"smiles": "CN1Cc2ccccc2N(CC(O)C(F)(F)F)CCC1=O", "note": "(stereo not drawn)", "cytotoxicity at 70.5 h": -6.68},
      {"smiles": "CCn1cc(S(=O)(=O)N2CCN(S(=O)(=O)c3ccc(Br)s3)CC2)cn1", "cytotoxicity at 70.5 h": -12},
      {"smiles": "CN(C)c1nccc(C2CCN(c3ncccn3)CC2)n1", "cytotoxicity at 70.5 h": -0.97},
      {"smiles": "COc1cc(CNCCn2cccn2)c2c(c1)CC(C)O2", "note": "(stereo not drawn)", "cytotoxicity at 70.5 h": 7.89},
      {"smiles": "Cc1cc(CN2CCN(C(=O)NCc3ccc(C)s3)CC2)on1", "cytotoxicity at 70.5 h": -2.93},
      {"smiles": "Cc1nc(CN2CCCC(c3cc(C(N)=O)[nH]n3)C2)oc1C", "note": "(stereo not drawn)", "cytotoxicity at 70.5 h": -1.85},
      {"smiles": "COCC(C)NS(=O)(=O)c1ccc(Br)cn1", "note": "(stereo not drawn)", "cytotoxicity at 70.5 h": -11.1},
      {"smiles": "COC[C@@H]1CC[C@H]2[C@H](CCN2S(=O)(=O)c2ccc(OC)cc2)O1", "cytotoxicity at 70.5 h": -6.4},
      {"smiles": "Cc1cc(CNC(=O)c2cccs2)ccc1S(C)(=O)=O", "cytotoxicity at 70.5 h": -3.96},
      {"smiles": "CC(C)NC(=O)N1CCC2(CCC(=O)N2CCN(C)C)CC1", "cytotoxicity at 70.5 h": -8.1},
      {"smiles": "CN(Cc1ccc(F)cc1)C(=O)CN1CCCC(Cn2cncn2)C1", "note": "(stereo not drawn)", "cytotoxicity at 70.5 h": 3.89},
      {"smiles": "Cc1cc(OCC(=O)N2CCCC(c3noc(C)n3)C2)no1", "note": "(stereo not drawn)", "cytotoxicity at 70.5 h": -5.48},
      {"smiles": "CNC(=O)[C@@H]1C[C@@H](NC(=O)Cc2nonc2C)CN1Cc1sccc1C", "cytotoxicity at 70.5 h": 1.29},
      {"smiles": "Cn1cccc1C(O)CNC(=O)c1cccc(Cl)c1", "note": "(stereo not drawn)", "cytotoxicity at 70.5 h": -9.53},
      {"smiles": "Cc1nnc(SCCCNC(=O)c2ccc3c(c2)OCO3)s1", "cytotoxicity at 70.5 h": -9.91},
      {"smiles": "CC(=O)N1CC=C(n2c(=O)[nH]c3ccccc32)CC1", "cytotoxicity at 70.5 h": -5.58},
      {"smiles": "CCc1nc(CC)n(CC(=O)NCc2ccccc2C)n1", "cytotoxicity at 70.5 h": -10.6},
      {"smiles": "Cc1cnn(CC2CCCCN2CCCS(N)(=O)=O)c1", "note": "(stereo not drawn)", "cytotoxicity at 70.5 h": 33.5},
      {"smiles": "Fc1cccc(-c2nc(CN3CCn4c(nnc4C4CC4)C3)co2)c1", "cytotoxicity at 70.5 h": -8.24},
      {"smiles": "CC(C)c1cc(C(=O)N2CCN(C)[C@@H]3CS(=O)(=O)C[C@@H]32)no1", "cytotoxicity at 70.5 h": -7.29},
      {"smiles": "CNS(=O)(=O)c1ccc(CNC(=O)NCC2CCOC2)cc1", "note": "(stereo not drawn)", "cytotoxicity at 70.5 h": -31.2},
      {"smiles": "Cc1cccc(N2CCN(Cc3nc(CC4CC4)no3)CC2)n1", "cytotoxicity at 70.5 h": 1.5},
      {"smiles": "Fc1ccc(CN2CCC3(CC2)CCN(c2ncccn2)CC3)cc1", "cytotoxicity at 70.5 h": 10.9},
      {"smiles": "COCCNc1cc(-c2ccccc2S(N)(=O)=O)c2cc[nH]c2n1", "cytotoxicity at 70.5 h": -7.36},
      {"smiles": "COc1ncccc1NC(=O)C1CCOCC1", "cytotoxicity at 70.5 h": 22.9},
      {"smiles": "CSCC(=O)N1CCC(Oc2cccc(C)c2)CC1", "cytotoxicity at 70.5 h": -7.4},
      {"smiles": "COc1ccc(C[C@H]2CN(c3nnc(C)s3)CC[C@H]2OC)cc1", "cytotoxicity at 70.5 h": -10.2},
      {"smiles": "OCc1nnn2c1CN(Cc1cccnc1)CCC2", "cytotoxicity at 70.5 h": -115},
      {"smiles": "Cn1cnc(S(=O)(=O)NCCCN2CCOCC2)c1Cl", "cytotoxicity at 70.5 h": -14.4},
      {"smiles": "CCc1cc(NCCc2ccc(O)cc2)n2nccc2n1", "cytotoxicity at 70.5 h": 2.9},
      {"smiles": "COc1cccc(OCC(=O)N2CCC3(CC2)[C@H](O)C[C@@H]3OC)c1", "cytotoxicity at 70.5 h": -5.93},
      {"smiles": "Cc1cccc(NCC(=O)Nc2cc(F)ccc2F)c1C(N)=O", "cytotoxicity at 70.5 h": -8.06},
      {"smiles": "COCCN1CCc2cc(C(=O)NC(C)C)c(NCC3CC3)nc2CC1", "cytotoxicity at 70.5 h": -0.245},
      {"smiles": "CCNc1cc2c(nn1)CCN(C(=O)C1COc3ccccc3C1)C2", "note": "(stereo not drawn)", "cytotoxicity at 70.5 h": -12.3},
      {"smiles": "COc1c(C2CCCN2Cc2nc(-c3ccco3)no2)c(C)nn1C", "note": "(stereo not drawn)", "cytotoxicity at 70.5 h": -2.62},
      {"smiles": "COC(=O)N1CCCN(C(=O)NCc2ccc(Cl)s2)CC1", "cytotoxicity at 70.5 h": 10.1},
      {"smiles": "COc1ccccc1COCC(O)CN1CC(n2cccn2)C1", "note": "(stereo not drawn)", "cytotoxicity at 70.5 h": -10.8},
      {"smiles": "CC(Cn1cccn1)NC(=O)Nc1cccnc1", "note": "(stereo not drawn)", "cytotoxicity at 70.5 h": -8.71},
      {"smiles": "O=c1ccc2c(n1Cc1cccnc1)CCN(C1CCOC1)CC2", "note": "(stereo not drawn)", "cytotoxicity at 70.5 h": -2.89},
      {"smiles": "CC(C)c1nc(CN(C)C(=O)CCS(=O)(=O)c2ccccc2)no1", "cytotoxicity at 70.5 h": -8.68},
      {"smiles": "Cc1cccc(SC2CCN(C(=O)CCNS(C)(=O)=O)CC2)c1", "cytotoxicity at 70.5 h": -13.1},
      {"smiles": "CC(C)NC(=O)N1CCN(c2ccc(Cl)nn2)C(=O)C1", "cytotoxicity at 70.5 h": -4.88},
      {"smiles": "Cn1cc(N)c(-c2nnc3n2CCCC3)n1", "cytotoxicity at 70.5 h": -0.222},
      {"smiles": "CC(NC(=O)Cc1ccccc1F)C(=O)N1CCS(=O)(=O)CC1", "note": "(stereo not drawn)", "cytotoxicity at 70.5 h": -3.35},
      {"smiles": "O=C1NC2(CCN(Cc3ccc(F)cc3)CC2)CC1c1ccncc1", "note": "(stereo not drawn)", "cytotoxicity at 70.5 h": -8.27},
      {"smiles": "CC(C)C1CN(c2cccc(C#N)n2)CCCN1CC1CC1", "note": "(stereo not drawn)", "cytotoxicity at 70.5 h": -11.5},
      {"smiles": "CC(C)c1cc2c(s1)NC(c1ccccn1)NC2=O", "note": "(stereo not drawn)", "cytotoxicity at 70.5 h": -3.28},
      {"smiles": "CC(C)N(CC(N)=O)C(=O)CCC(=O)c1ccc(F)cc1F", "cytotoxicity at 70.5 h": -6.11},
      {"smiles": "Cc1ccc2c(c1)CCC2NCc1c(C)nn(CCO)c1C", "note": "(stereo not drawn)", "cytotoxicity at 70.5 h": -6.83},
      {"smiles": "Fc1cnc(N2CCCC3(CN(Cc4ccccc4)CCO3)C2)nc1", "note": "(stereo not drawn)", "cytotoxicity at 70.5 h": -4.05},
      {"smiles": "Cc1ccc2c(c1)C(=O)NCC1(CCN(C(=O)c3ccccn3)CC1)O2", "cytotoxicity at 70.5 h": -7.17},
      {"smiles": "O=C(NCc1cccnc1-n1cncn1)C1CC2(CCNCC2)CN1", "note": "(stereo not drawn)", "cytotoxicity at 70.5 h": -4.56},
      {"smiles": "Cc1ccc(SCC2CNc3nc4ccccc4c(=O)n32)c(C)c1", "note": "(stereo not drawn)", "cytotoxicity at 70.5 h": 20},
      {"smiles": "CCOCc1nn(C)c2c1CN(CCO)CC2", "cytotoxicity at 70.5 h": -6.16},
      {"smiles": "CC(C)(C)c1ncc(C(=O)NC(C(N)=O)c2ccccc2)s1", "note": "(stereo not drawn)", "cytotoxicity at 70.5 h": 15.8},
      {"smiles": "Cc1ccsc1CN1CCCC(CNC(=O)c2ccc(N)nc2)C1", "note": "(stereo not drawn)", "cytotoxicity at 70.5 h": -8.08},
      {"smiles": "Cn1cc(C2=NOC(C(=O)NC3(c4ccccc4F)CCCC3)C2)cn1", "note": "(stereo not drawn)", "cytotoxicity at 70.5 h": 12.6},
      {"smiles": "COc1cc(CNC(=O)COC2CCCC2)ccc1O", "cytotoxicity at 70.5 h": -4.4},
      {"smiles": "Fc1cccc2ncnc(NCCCc3ccncc3)c12", "cytotoxicity at 70.5 h": -4.44},
      {"smiles": "Cn1cc(C(=O)N2CC[C@@]3(O)CCN(C(=O)C4CCCC4)C[C@H]3C2)cn1", "cytotoxicity at 70.5 h": -10.4},
      {"smiles": "O=C1CO[C@H](c2ccc(NS(=O)(=O)Cc3ccccc3)cc2)[C@@H](CO)N1", "cytotoxicity at 70.5 h": 12},
      {"smiles": "CC(C)CNC(=O)Cc1cnc(-n2cccc2)s1", "cytotoxicity at 70.5 h": -18.5},
      {"smiles": "Cc1nn(C)c(C)c1CCC(=O)N1CC(c2cccnc2)C1", "cytotoxicity at 70.5 h": 0.0861},
      {"smiles": "CCc1noc(C)c1C(=O)Nc1cnn(CC(=O)NC2CCCC2)c1", "cytotoxicity at 70.5 h": -1.44},
      {"smiles": "NC(=O)NC(=O)C(c1ccccc1)N1CCN(Cc2ccsc2)CC1", "note": "(stereo not drawn)", "cytotoxicity at 70.5 h": -7.31},
      {"smiles": "NC(=O)CN1CCCN(C(=O)Cc2ccc3c(c2)OCCO3)CC1", "cytotoxicity at 70.5 h": -11},
      {"smiles": "CCCc1nc(CN2CCN(C(C)c3nc(C4CC4)no3)CC2)no1", "note": "(stereo not drawn)", "cytotoxicity at 70.5 h": -5.86},
      {"smiles": "CC(C)N(C(=O)Cn1c(-c2ccco2)cc2cccnc21)C(C)C", "cytotoxicity at 70.5 h": -15.1},
      {"smiles": "Cc1c[nH]nc1C1CCCN1Cc1nccn1C", "note": "(stereo not drawn)", "cytotoxicity at 70.5 h": -4.65},
      {"smiles": "Cn1nccc1C1CCN(CC(=O)NCC2CC2)CC1", "cytotoxicity at 70.5 h": -8.55},
      {"smiles": "COCc1nc(C(=O)N2CCCCC2Cn2cc(C)cn2)cs1", "note": "(stereo not drawn)", "cytotoxicity at 70.5 h": 16.8},
      {"smiles": "CC(C)(C)c1ncc(C(=O)NCCNc2ncccn2)s1", "cytotoxicity at 70.5 h": -4.56}
    ]}
  ]
}
